Laboratory results: PubChem BioAssay AID328 (DTP/NCI, 2004)
Where “and” joins values, the source holds several entries; their conditions need not be identical. Equal values may be shown once. Toxic doses and inconclusive results are not listed.

Tested on: BDF1 mice, P388 leukemia ip, median survival T/C
Assay: NCI In Vivo Anticancer Drug Screen. Data for tumor model P388 Leukemia (intraperitoneal) in B6D2F1 (BDF1) mice
Details: endpoint: median survival time, higher = longer survival
Outline: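 Antitumour effect was judged in vivo: survival in drug-treated mice, normalised to that of vehicle-dosed controls, gives the reported T/C.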

[1] = dose: 50.0 mg/kg/injection, schedule: Q01DX009 (ip), vehicle: saline with Tween-80
[2] = dose: 100.0 mg/kg/injection, schedule: Q04DX003 (ip), vehicle: saline with Tween-80
[3] = dose: 200.0 mg/kg/injection, schedule: Q04DX003 (ip), vehicle: saline with Tween-80
[4] = dose: 400.0 mg/kg/injection, schedule: Q04DX003 (ip), vehicle: saline with Tween-80
[5] = dose: 100.0 mg/kg/injection, schedule: Q01DX009 (ip), vehicle: saline with Tween-80
[6] = dose: 200.0 mg/kg/injection, schedule: Q01DX009 (ip), vehicle: saline with Tween-80
[7] = dose: 50.0 mg/kg/injection, schedule: Q01DX009 (ip), vehicle: saline
[8] = dose: 100.0 mg/kg/injection, schedule: Q01DX009 (ip), vehicle: saline
[9] = dose: 12.5 mg/kg/injection, schedule: Q01DX009 (ip), vehicle: saline
[10] = dose: 25.0 mg/kg/injection, schedule: Q01DX009 (ip), vehicle: saline
[11] = dose: 100.0 mg/kg/injection, schedule: Q04DX003 (ip), vehicle: saline
[12] = dose: 200.0 mg/kg/injection, schedule: Q04DX003 (ip), vehicle: saline
[13] = dose: 200.0 mg/kg/injection, schedule: Q01DX009 (ip), vehicle: saline
[14] = dose: 100.0 mg/kg/injection, schedule: Q01DX001 (ip), vehicle: saline with Tween-80

`CCN(CCO)CC(C)Nc1ccc([N+](=O)[O-])c2sc3ccccc3c(=O)c12` (centres undefined) was tested, and the T/C (dose: 33.0 mg/kg/injection, schedule: Q01DX009 (ip), vehicle: saline with Tween-80) was 195 % of control, the T/C [1] was 177 % of control and the T/C (dose: 66.0 mg/kg/injection, schedule: Q04DX003 (ip), vehicle: saline with Tween-80) was 162 % of control. For the same compound, the T/C (dose: 75.0 mg/kg/injection, schedule: Q01DX009 (ip), vehicle: saline with Tween-80) was 95 % of control, the T/C [2] was 191 % of control and 200 % of control and the T/C (dose: 150.0 mg/kg/injection, schedule: Q04DX003 (ip), vehicle: saline with Tween-80) was 220 % of control. The T/C [3] was 113 % of control and the T/C [4] was 95 % of control.

In the case of `CCC(C)C(=O)/C=C/c1ccccc1` (centres undefined), the T/C [1] is reported as 96 % of control, the T/C [5] is reported as 107 % of control and the T/C [6] is reported as 114 % of control.

For `Cc1cc(N(CCOS(C)(=O)=O)CCOS(C)(=O)=O)ccc1C=Nc1ccc(-c2csc(Cc3ccccc3)n2)cc1`, the T/C (dose: 8.25 mg/kg/injection, schedule: Q01DX009 (ip), vehicle: Klucel (hydroxypropylcellulose) (HPC)) was 100 % of control and 211 % of control, the T/C (dose: 12.4 mg/kg/injection, schedule: Q01DX009 (ip), vehicle: Klucel (hydroxypropylcellulose) (HPC)) was 225 % of control and the T/C (dose: 12.5 mg/kg/injection, schedule: Q01DX009 (ip), vehicle: Klucel (hydroxypropylcellulose) (HPC)) was 250 % of control. For the same compound, the T/C (dose: 18.7 mg/kg/injection, schedule: Q01DX009 (ip), vehicle: Klucel (hydroxypropylcellulose) (HPC)) was 155 % of control, the T/C (dose: 18.75 mg/kg/injection, schedule: Q01DX009 (ip), vehicle: Klucel (hydroxypropylcellulose) (HPC)) was 227 % of control and 178 % of control and the T/C (dose: 28.13 mg/kg/injection, schedule: Q01DX009 (ip), vehicle: Klucel (hydroxypropylcellulose) (HPC)) was 99 % of control.

In the case of `CN(C)Nc1ncnc2nc[nH]c12`, the T/C [7] is reported as 95 % of control, the T/C [8] is reported as 91 % of control and the T/C [2] is reported as 100 % of control. For the same compound, the T/C [3] was 114 % of control.

In the case of `CC(=O)O.CC(=O)O.[NH-]C(CCC(N)=O)C(=O)O.[NH-]C(CCC(N)=O)C(=O)O.[Ni+2]` (centres undefined), the T/C [9] is reported as 104 % of control and the T/C [10] is reported as 93 % of control.

In the case of `CC(C)NC(=O)c1ccccc1-[s+]1c2ccccc2c(=O)n1C(C)C` (centres undefined), the T/C [2] is reported as 94 % of control, the T/C [3] is reported as 96 % of control and the T/C [4] is reported as 96 % of control.

`CCOC(=O)C(=O)N(Cc1cnc2nc(N)[nH]c(=O)c2n1)c1ccc(C(=O)NC(CCC(=O)O)C(=O)O)cc1` (centres undefined) was tested, and the T/C (dose: 50.0 mg/kg/injection, schedule: Q04DX003 (ip), vehicle: saline) was 96 % of control, the T/C [11] was 103 % of control and the T/C [12] was 116 % of control.

For `O=C1/C(=C\c2ccccc2)OC(c2ccccc2)O/C1=C/c1ccccc1` (centres undefined), the T/C [7] was 108 % of control, the T/C [8] was 95 % of control and the T/C [11] was 120 % of control. The T/C [13] was 97 % of control, the T/C [12] was 117 % of control and the T/C (dose: 400.0 mg/kg/injection, schedule: Q04DX003 (ip), vehicle: saline) was 114 % of control.

In the case of `C=CC(C)(O)/C=C/C=C(\C)C(CC1OC1(C)C)OC(=O)/C(C)=C\C` (centres undefined), the T/C (dose: 0.78 mg/kg/injection, schedule: Q01DX009 (ip), vehicle: saline) is reported as 106 % of control, the T/C (dose: 1.56 mg/kg/injection, schedule: Q01DX009 (ip), vehicle: saline) is reported as 95 % of control and the T/C (dose: 3.13 mg/kg/injection, schedule: Q01DX009 (ip), vehicle: saline) is reported as 95 % of control. The T/C (dose: 6.25 mg/kg/injection, schedule: Q01DX009 (ip), vehicle: saline) was 113 % of control.

For `CC(=O)N1CCc2nc3ccccc3cc21`, the T/C (dose: 24.75 mg/kg/injection, schedule: Q01DX009 (ip), vehicle: Klucel (hydroxypropylcellulose) (HPC)) was 123 % of control, the T/C (dose: 25.0 mg/kg/injection, schedule: Q01DX009 (ip), vehicle: Klucel (hydroxypropylcellulose) (HPC)) was 105 % of control and the T/C (dose: 37.5 mg/kg/injection, schedule: Q01DX009 (ip), vehicle: Klucel (hydroxypropylcellulose) (HPC)) was 104 % of control and 105 % of control. The T/C (dose: 56.25 mg/kg/injection, schedule: Q01DX009 (ip), vehicle: Klucel (hydroxypropylcellulose) (HPC)) was 104 % of control and 110 % of control.

In the case of `OC(Cc1cc(CC(O)(C(F)(F)F)C(F)(F)F)ncn1)(C(F)(F)F)C(F)(F)F`, the T/C [5] is reported as 95 % of control and the T/C [6] is reported as 90 % of control.

In the case of `O=Nc1ccc(O)c(=O)cc1`, the T/C (dose: 1.0 mg/kg/injection, schedule: Q01DX009 (ip), vehicle: saline with Tween-80) is reported as 109 % of control, the T/C (dose: 1.0 mg/kg/injection, schedule: Q04DX003 (ip), vehicle: saline) is reported as 104 % of control and the T/C (dose: 2.0 mg/kg/injection, schedule: Q01DX009 (ip), vehicle: saline with Tween-80) is reported as 109 % of control. The T/C (dose: 2.0 mg/kg/injection, schedule: Q04DX003 (ip), vehicle: saline) was 104 % of control, the T/C (dose: 4.0 mg/kg/injection, schedule: Q01DX009 (ip), vehicle: saline with Tween-80) was 90 % of control and the T/C (dose: 4.0 mg/kg/injection, schedule: Q04DX003 (ip), vehicle: saline) was 116 % of control.

`CCC[CH2][Sn]1([CH2]CCC)[O]OC(c2ccc(OC)cc2)[O]1` (centres undefined) was tested, and the T/C (dose: 3.12 mg/kg/injection, schedule: Q01DX009 (sc), vehicle: olive oil, sesame oil, peanut oil) was 112 % of control and the T/C (dose: 6.25 mg/kg/injection, schedule: Q01DX009 (sc), vehicle: olive oil, sesame oil, peanut oil) was 99 % of control.

For `COC(=O)C1C(O)CCC2CN3CCc4c([nH]c5ccccc45)C3CC21` (centres undefined), the T/C [10] was 88 % of control, the T/C [1] was 105 % of control and the T/C [7] was 88 % of control. For the same compound, the T/C [5] was 119 % of control, the T/C [8] was 110 % of control and the T/C [13] was 118 % of control.

`CCCCN(C)C(=S)S[Te](SC(=S)N(C)CCCC)(SC(=S)N(C)CCCC)SC(=S)N(C)CCCC` was tested, and the T/C (dose: 45.0 mg/kg/injection, schedule: Q01DX010 (ip), vehicle: carboxymethylcellulose (CMC)) was 100 % of control, the T/C (dose: 90.0 mg/kg/injection, schedule: Q01DX010 (ip), vehicle: carboxymethylcellulose (CMC)) was 105 % of control and the T/C (dose: 180.0 mg/kg/injection, schedule: Q01DX010 (ip), vehicle: carboxymethylcellulose (CMC)) was 115 % of control. For the same compound, the T/C (dose: 360.0 mg/kg/injection, schedule: Q01DX010 (ip), vehicle: carboxymethylcellulose (CMC)) was 110 % of control.

In the case of `CCCC(=O)OCC1OC(n2cnc3c(=S)nc(N)[nH]c32)C(OC(=O)CCC)C1OC(=O)CCC` (centres undefined), the T/C (dose: 16.5 mg/kg/injection, schedule: Q04DX003 (ip), vehicle: saline with Tween-80) is reported as 177 % of control, the T/C (dose: 25.0 mg/kg/injection, schedule: Q04DX003 (ip), vehicle: saline with Tween-80) is reported as 154 % of control and the T/C (dose: 37.5 mg/kg/injection, schedule: Q04DX003 (ip), vehicle: saline with Tween-80) is reported as 161 % of control.

`CC1=C(C)C2(C)C1(C)C1(C)C(C)=C(C)C21C` (centres undefined) was tested, and the T/C (dose: 50.0 mg/kg/injection, schedule: Q01DX009 (ip), vehicle: Klucel (hydroxypropylcellulose) (HPC)) was 100 % of control, the T/C (dose: 100.0 mg/kg/injection, schedule: Q01DX009 (ip), vehicle: Klucel (hydroxypropylcellulose) (HPC)) was 90 % of control and the T/C (dose: 200.0 mg/kg/injection, schedule: Q01DX009 (ip), vehicle: Klucel (hydroxypropylcellulose) (HPC)) was 105 % of control.

`O=C(O)CNOCN1C(=O)c2ccccc2C1=O` was tested, and the T/C (dose: 100.0 mg/kg/injection, schedule: Q01DX001 (ip), vehicle: Klucel (hydroxypropylcellulose) (HPC)) was 104 % of control, the T/C (dose: 200.0 mg/kg/injection, schedule: Q01DX001 (ip), vehicle: Klucel (hydroxypropylcellulose) (HPC)) was 91 % of control and the T/C (dose: 400.0 mg/kg/injection, schedule: Q01DX001 (ip), vehicle: Klucel (hydroxypropylcellulose) (HPC)) was 95 % of control.

With `Cc1ccc(CC2c3ccccc3Nc3ccccc32)cc1` the T/C [14] was 86 % of control, the T/C (dose: 200.0 mg/kg/injection, schedule: Q01DX001 (ip), vehicle: saline with Tween-80) was 86 % of control and the T/C (dose: 400.0 mg/kg/injection, schedule: Q01DX001 (ip), vehicle: saline with Tween-80) was 88 % of control.

In the case of `CN1CCN(C(=O)N2c3ccccc3Sc3ccccc32)CC1`, the T/C [9] is reported as 100 % of control, the T/C [10] is reported as 110 % of control and the T/C [7] is reported as 100 % of control. The T/C [12] was 100 % of control.

With `CCN(CC)P(Cl)(C1=C(Cl)C(=O)C(C#N)=C(C#N)C1=O)(N(CC)CC)N(CC)CC` the T/C (dose: 25.0 mg/kg/injection, schedule: Q01DX001 (ip), vehicle: saline with Tween-80) was 97 % of control, the T/C (dose: 50.0 mg/kg/injection, schedule: Q01DX001 (ip), vehicle: saline with Tween-80) was 95 % of control and the T/C [14] was 95 % of control.

For `Cn1c(CC(O)(C(F)(F)F)C(F)(F)F)cc2ccccc21`, the T/C (dose: 100.0 mg/kg/injection, schedule: Q01DX001 (ip), vehicle: other) was 87 % of control and the T/C (dose: 400.0 mg/kg/injection, schedule: Q01DX001 (ip), vehicle: other) was 95 % of control.
